Reference: the OligoGym collection
HELM strings list units from the 5' end as sugar, base in round brackets, then linkage (d deoxyribose, r ribose, m 2'-O-methyl, p phosphodiester). Strings are as the collection lists them; they lack the last nucleoside at the 3' end of the tested compound. [moe] = 2'-O-(2-methoxyethyl) (MOE); [sp] = phosphorothioate linkage; [m5C] = 5-methylcytosine

Target: UBE3A-ATS
Test: mouse, dose not given
Conditions: ASO

Substance	3 h FOB score
RNA1{[moe](T)[sp].[moe]([m5C])p.[moe](A)p.[moe]([m5C])p.[moe]([m5C])[sp].d(A)[sp].d(T)[sp].d(T)[sp].d(T)[sp].d(T)[sp].d(G)[sp].d(A)[sp].d([m5C])[sp].[moe]([m5C])p.[moe](T)p.[moe](T)[sp].[moe]([m5C])}$$$$ (last 3' nucleoside missing)	2 score 0-7
RNA1{[moe](A)[sp].[moe](T)p.[moe](T)p.[moe](G)p.[moe](G)p.d(T)[sp].d([m5C])[sp].d(A)[sp].d(T)[sp].d([m5C])[sp].d(T)[sp].d([m5C])[sp].d(G)[sp].d(G)[sp].d(G)[sp].[moe](T)p.[moe](A)p.[moe](T)[sp].[moe](A)}$$$$ (last 3' nucleoside missing)	2.8 score 0-7
RNA1{[moe]([m5C])[sp].[moe](G)p.[moe](G)p.[moe](A)p.[moe]([m5C])p.d(A)[sp].d(G)[sp].d(T)[sp].d(G)[sp].d(T)[sp].d(T)[sp].d(G)[sp].d([m5C])[sp].d(T)[sp].d(G)[sp].[moe](T)p.[moe](T)p.[moe](A)[sp].[moe](G)}$$$$ (last 3' nucleoside missing)	6 score 0-7
RNA1{[moe](T)[sp].[moe](A)p.[moe](G)p.[moe](G)p.[moe](T)p.[moe]([m5C])p.d(A)[sp].d(A)[sp].d([m5C])[sp].d([m5C])[sp].d(A)[sp].d(A)[sp].d(T)[sp].d(T)[sp].d(T)[sp].d(G)[sp].[moe]([m5C])p.[moe](T)[sp].[moe](A)}$$$$ (last 3' nucleoside missing)	5 score 0-7
RNA1{[moe](A)[sp].[moe](G)p.[moe](T)p.[moe](A)p.[moe](T)p.d(A)[sp].d(G)[sp].d(A)[sp].d(T)[sp].d(G)[sp].d([m5C])[sp].d([m5C])[sp].d(T)[sp].d([m5C])[sp].d(T)[sp].[moe]([m5C])p.[moe]([m5C])p.[moe](T)[sp].[moe]([m5C])}$$$$ (last 3' nucleoside missing)	3.3 score 0-7
RNA1{[moe](G)[sp].[moe](T)p.[moe]([m5C])p.[moe](A)p.[moe](A)p.d([m5C])[sp].d([m5C])[sp].d(A)[sp].d(A)[sp].d(T)[sp].d(T)[sp].d(T)[sp].d(G)[sp].d([m5C])[sp].d(T)[sp].[moe](A)p.[moe](T)p.[moe](T)[sp].[moe]([m5C])}$$$$ (last 3' nucleoside missing)	1 score 0-7
RNA1{[moe](T)[sp].[moe](G)p.[moe](A)p.[moe](T)p.[moe]([m5C])p.d(A)[sp].d([m5C])[sp].d(A)[sp].d(T)[sp].d(T)[sp].d(A)[sp].d([m5C])[sp].d([m5C])[sp].d([m5C])[sp].d(A)[sp].[moe](T)p.[moe]([m5C])p.[moe]([m5C])[sp].[moe](G)}$$$$ (last 3' nucleoside missing)	0 score 0-7
RNA1{[moe](G)[sp].[moe]([m5C])p.[moe](A)p.[moe](T)[sp].d(A)[sp].d([m5C])[sp].d([m5C])[sp].d([m5C])[sp].d(A)[sp].d(G)[sp].d(G)[sp].d(G)[sp].[moe](T)p.[moe](A)p.[moe](G)p.[moe](G)[sp].[moe](A)}$$$$ (last 3' nucleoside missing)	0 score 0-7
RNA1{[moe](T)[sp].[moe](T)p.[moe](T)p.[moe](A)p.[moe](T)p.d(T)[sp].d(G)[sp].d(G)[sp].d(T)[sp].d([m5C])[sp].d(A)[sp].d(T)[sp].d([m5C])[sp].d(T)[sp].d([m5C])[sp].[moe](G)p.[moe](G)p.[moe](G)[sp].[moe](T)}$$$$ (last 3' nucleoside missing)	3.7 score 0-7
RNA1{[moe](G)[sp].[moe](G)p.[moe](T)p.[moe](T)p.[moe](A)p.d(G)[sp].d(G)[sp].d(G)[sp].d([m5C])[sp].d(T)[sp].d(A)[sp].d(T)[sp].d(G)[sp].d(T)[sp].d(T)[sp].[moe](A)p.[moe](T)p.[moe](G)[sp].[moe](T)}$$$$ (last 3' nucleoside missing)	6 score 0-7
RNA1{[moe](T)[sp].[moe](T)p.[moe](T)p.[moe](T)p.[moe](T)p.[moe]([m5C])p.d([m5C])[sp].d(A)[sp].d(T)[sp].d(T)[sp].d(T)[sp].d(T)[sp].d(T)[sp].d([m5C])[sp].d(T)[sp].d([m5C])[sp].[moe](T)p.[moe](T)[sp].[moe](A)}$$$$ (last 3' nucleoside missing)	1 score 0-7
RNA1{[moe]([m5C])[sp].[moe](A)p.[moe](G)p.[moe](T)[sp].d(T)[sp].d(A)[sp].d(G)[sp].d(G)[sp].d(T)[sp].d(T)[sp].d(A)[sp].d(G)[sp].[moe](T)p.[moe](G)p.[moe]([m5C])p.[moe](A)[sp].[moe]([m5C])}$$$$ (last 3' nucleoside missing)	2 score 0-7
RNA1{[moe](T)[sp].[moe](A)p.[moe](G)p.[moe](G)p.[moe]([m5C])p.d(T)[sp].d(G)[sp].d(G)[sp].d(G)[sp].d([m5C])[sp].d([m5C])[sp].d(T)[sp].d([m5C])[sp].d(A)[sp].d(G)[sp].[moe]([m5C])p.[moe](G)p.[moe](T)[sp].[moe](A)}$$$$ (last 3' nucleoside missing)	3.5 score 0-7
RNA1{[moe]([m5C])[sp].[moe](T)p.[moe](A)p.[moe](T)p.[moe]([m5C])p.d(A)[sp].d(A)[sp].d(G)[sp].d(G)[sp].d([m5C])[sp].d(T)[sp].d(G)[sp].d(T)[sp].d(T)[sp].d(A)[sp].[moe](T)p.[moe](T)p.[moe](G)[sp].[moe](G)}$$$$ (last 3' nucleoside missing)	4 score 0-7
RNA1{[moe](G)[sp].[moe]([m5C])p.[moe](T)p.[moe](T)p.[moe](A)p.d(G)[sp].d(G)[sp].d([m5C])[sp].d(A)[sp].d(A)[sp].d(T)[sp].d(G)[sp].d(G)[sp].d(A)[sp].d([m5C])[sp].[moe](T)p.[moe](T)p.[moe](A)[sp].[moe](G)}$$$$ (last 3' nucleoside missing)	5.5 score 0-7
RNA1{[moe](G)[sp].[moe](G)p.[moe](A)p.[moe]([m5C])p.[moe](A)p.d([m5C])[sp].d(T)[sp].d([m5C])[sp].d(T)[sp].d([m5C])[sp].d(G)[sp].d([m5C])[sp].d(T)[sp].d(G)[sp].d(A)[sp].[moe](G)p.[moe](G)p.[moe](A)[sp].[moe]([m5C])}$$$$ (last 3' nucleoside missing)	4.5 score 0-7
RNA1{[moe](G)[sp].[moe](T)p.[moe]([m5C])p.[moe](T)p.[moe](T)p.d([m5C])[sp].d(A)[sp].d(T)[sp].d(T)[sp].d(A)[sp].d(T)[sp].d(T)[sp].d([m5C])[sp].d(T)[sp].d([m5C])[sp].[moe](T)p.[moe](A)p.[moe](G)[sp].[moe](T)}$$$$ (last 3' nucleoside missing)	4.7 score 0-7
RNA1{[moe](G)[sp].[moe]([m5C])p.[moe](A)p.[moe]([m5C])p.[moe](T)p.d(T)[sp].d(A)[sp].d(A)[sp].d(A)[sp].d(T)[sp].d(T)[sp].d(T)[sp].d(A)[sp].d(T)[sp].d([m5C])[sp].[moe](A)p.[moe](G)p.[moe](T)[sp].[moe](T)}$$$$ (last 3' nucleoside missing)	3 score 0-7
RNA1{[moe](A)[sp].[moe](A)p.[moe]([m5C])p.[moe](T)p.[moe](G)p.d([m5C])[sp].d(T)[sp].d(T)[sp].d([m5C])[sp].d(A)[sp].d([m5C])[sp].d([m5C])[sp].d(A)[sp].d(T)[sp].d(T)[sp].[moe](T)p.[moe](T)p.[moe](G)[sp].[moe](A)}$$$$ (last 3' nucleoside missing)	0 score 0-7
RNA1{[moe]([m5C])[sp].[moe](A)p.[moe](G)p.[moe](T)p.[moe](A)p.d(G)[sp].d(T)[sp].d(G)[sp].d(G)[sp].d(T)[sp].d(A)[sp].d(T)[sp].d([m5C])[sp].d(A)[sp].d(A)[sp].[moe](A)p.[moe](T)p.[moe]([m5C])[sp].[moe](T)}$$$$ (last 3' nucleoside missing)	6.2 score 0-7
RNA1{[moe](T)[sp].[moe](A)p.[moe](A)p.[moe]([m5C])p.[moe](T)p.d(G)[sp].d([m5C])[sp].d(T)[sp].d(T)[sp].d([m5C])[sp].d(A)[sp].d([m5C])[sp].d([m5C])[sp].d(A)[sp].d(T)[sp].[moe](T)p.[moe](T)p.[moe](T)[sp].[moe](G)}$$$$ (last 3' nucleoside missing)	0 score 0-7
RNA1{[moe](G)[sp].[moe](T)p.[moe](T)p.[moe]([m5C])p.[moe](T)p.d(G)[sp].d(G)[sp].d(A)[sp].d(A)[sp].d(T)[sp].d([m5C])[sp].d(T)[sp].d(T)[sp].d(G)[sp].d(T)[sp].[moe](A)p.[moe](G)p.[moe](A)[sp].[moe](G)}$$$$ (last 3' nucleoside missing)	4 score 0-7
RNA1{[moe]([m5C])[sp].[moe](A)p.[moe]([m5C])p.[moe](T)p.[moe](G)p.d(A)[sp].d(G)[sp].d(T)[sp].d(T)[sp].d(T)[sp].d(T)[sp].d(T)[sp].d(G)[sp].d(T)[sp].d(A)[sp].[moe](G)p.[moe](T)p.[moe](T)[sp].[moe]([m5C])}$$$$ (last 3' nucleoside missing)	4 score 0-7
RNA1{[moe]([m5C])[sp].[moe](G)p.[moe]([m5C])p.[moe](A)p.[moe](A)p.[moe](T)[sp].d(G)[sp].d(T)[sp].d(A)[sp].d(T)[sp].d([m5C])[sp].d(A)[sp].d(G)[sp].d(G)[sp].[moe]([m5C])p.[moe](A)[sp].[moe](A)}$$$$ (last 3' nucleoside missing)	3 score 0-7
RNA1{[moe](G)[sp].[moe](G)p.[moe](G)p.[moe](T)p.[moe](A)p.d([m5C])[sp].d(T)[sp].d(A)[sp].d(T)[sp].d(G)[sp].d(T)[sp].d(T)[sp].d(G)[sp].d(T)[sp].d([m5C])[sp].[moe](A)p.[moe]([m5C])p.[moe](T)[sp].[moe](G)}$$$$ (last 3' nucleoside missing)	6 score 0-7
RNA1{[moe](T)[sp].[moe](A)p.[moe](G)p.[moe](G)p.[moe](G)p.d(T)[sp].d(G)[sp].d(G)[sp].d(T)[sp].d(T)[sp].d(G)[sp].d(G)[sp].d(T)[sp].d(T)[sp].d([m5C])[sp].[moe](A)p.[moe](A)p.[moe](A)[sp].[moe](A)}$$$$ (last 3' nucleoside missing)	5.7 score 0-7
RNA1{[moe](A)[sp].[moe](G)p.[moe]([m5C])p.[moe]([m5C])p.d(A)[sp].d(G)[sp].d(G)[sp].d(T)[sp].d(G)[sp].d(T)[sp].d([m5C])[sp].d(T)[sp].d(T)[sp].d(A)[sp].[moe](T)p.[moe](A)p.[moe](T)p.[moe]([m5C])[sp].[moe](T)}$$$$ (last 3' nucleoside missing)	4 score 0-7
